Several values for one entry are separate records, joined by “and”; a condition that tells them apart may be missing. Identical values can stand only once. Activity calls are given as the source filed them. No cut-off for these calls is given here.
How the values were obtained:
[1] = test system: Rattus norvegicus; assay: Percentage change in volume of pleural fluid in the 5-h Evans Blue-Carrageenan pleural assay for the compound at dose 20 mg/kg; type: functional
[2] = test system: Rattus norvegicus; assay: Percentage change in volume of pleural fluid in the 5-h Evans Blue-Carrageenan pleural assay for Indomethacin 4.0 mg/kg; type: functional
[3] = test system: Rattus norvegicus; assay: Oral antiinflammatory activity, measured in rats at the dose of 316 mg/kg; type: functional
[4] = test system: Rattus norvegicus; assay: Percentage change in volume of pleural fluid in the 5-h Evans Blue-Carrageenan pleural assay for the compound at dose 4 mg/kg; type: functional
[5] = test system: Rattus norvegicus; assay: Percentage change in volume of pleural fluid in the 5-h Evans Blue-Carrageenan pleural assay for the compound at dose 100 mg/kg; type: functional
[6] = test system: Rattus norvegicus; assay: Percentage change in volume of pleural fluid in the 5-h Evans Blue-Carrageenan pleural assay for the compound at (100 mg/kg); type: functional
[7] = species: Rattus norvegicus; assay: Percentage change in volume of pleural fluid in the 5-h Evans Blue-Carrageenan pleural assay for the compound; type: functional
[8] = test system: Rattus norvegicus; assay: Percentage change in volume of pleural fluid in the 5-h Evans Blue-Carrageenan pleural assay for Indomethacin at dose 4.0 mg/kg; type: functional
[9] = molecular target: T1, Cyclooxygenase (Bos taurus, UniProt O62664+O62698)
T1 sequence (O62664 whole entry): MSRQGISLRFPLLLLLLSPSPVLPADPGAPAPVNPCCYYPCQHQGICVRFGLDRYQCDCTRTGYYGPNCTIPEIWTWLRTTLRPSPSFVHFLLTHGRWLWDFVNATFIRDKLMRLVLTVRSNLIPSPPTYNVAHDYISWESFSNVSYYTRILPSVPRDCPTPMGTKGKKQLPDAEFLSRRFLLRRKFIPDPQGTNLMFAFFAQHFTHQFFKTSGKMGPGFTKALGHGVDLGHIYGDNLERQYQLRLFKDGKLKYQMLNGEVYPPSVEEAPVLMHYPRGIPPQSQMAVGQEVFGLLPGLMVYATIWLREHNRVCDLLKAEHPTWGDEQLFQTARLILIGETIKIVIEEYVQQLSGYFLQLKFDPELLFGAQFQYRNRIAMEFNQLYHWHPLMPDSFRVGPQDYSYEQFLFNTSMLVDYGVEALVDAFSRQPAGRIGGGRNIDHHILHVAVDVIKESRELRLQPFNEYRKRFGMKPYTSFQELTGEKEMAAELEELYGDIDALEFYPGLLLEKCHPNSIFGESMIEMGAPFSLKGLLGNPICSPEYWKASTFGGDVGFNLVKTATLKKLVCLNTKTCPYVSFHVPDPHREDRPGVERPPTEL
T1 sequence (O62698 whole entry): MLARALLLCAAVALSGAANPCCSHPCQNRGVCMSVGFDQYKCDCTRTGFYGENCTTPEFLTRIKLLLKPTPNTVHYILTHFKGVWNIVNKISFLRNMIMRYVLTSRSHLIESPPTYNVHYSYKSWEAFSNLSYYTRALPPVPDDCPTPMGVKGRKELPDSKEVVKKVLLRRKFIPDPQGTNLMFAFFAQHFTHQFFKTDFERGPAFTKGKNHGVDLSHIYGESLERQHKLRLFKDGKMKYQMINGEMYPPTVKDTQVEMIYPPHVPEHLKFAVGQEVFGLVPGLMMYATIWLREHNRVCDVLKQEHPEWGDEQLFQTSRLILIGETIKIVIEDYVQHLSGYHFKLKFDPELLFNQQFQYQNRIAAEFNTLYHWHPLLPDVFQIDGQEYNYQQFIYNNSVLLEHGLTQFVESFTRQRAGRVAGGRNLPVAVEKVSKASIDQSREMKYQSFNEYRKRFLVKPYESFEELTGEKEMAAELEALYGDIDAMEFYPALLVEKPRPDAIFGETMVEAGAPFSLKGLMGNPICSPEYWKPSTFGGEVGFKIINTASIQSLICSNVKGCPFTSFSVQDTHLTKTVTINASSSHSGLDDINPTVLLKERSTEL
Description: Inhibition of PG synthetase activity obtained from bovine seminal vesicles

[10] = test system: Rattus norvegicus; assay: Percentage change in volume of pleural fluid in the 5h- Evans Blue-Carrageenan pleural assay for the compound at dose 80 mg/kg; type: functional
[11] = test system: Rattus norvegicus; assay: Percentage change in volume of pleural fluid in the 5-h Evans Blue-Carrageenan pleural assay for the compound at dose 100 m/kg; type: functional
[12] = test system: Rattus norvegicus; assay: Percentage change in volume of pleural fluid in the 5-h Evans Blue-Carrageenan pleural assay for the compound at dose 20 m/kg; type: functional
[13] = test system: Rattus norvegicus; assay: Percentage change in volume of pleural fluid in the 5-h Evans Blue-Carrageenan pleural assay for the compound at dose 80 m/kg; type: functional
[14] = test system: Rattus norvegicus; assay: Relative Oral Anti inflammatory activity in the 5-h Evans Blue-Carrageenan pleural assay using indomethacin as reference compound; IA = inactive at 316 mg/kg; type: functional, organism-based; set-up: dose 316 mg/kg

With `Cc1ccc(C(=O)c2ccccc2)c(NC(C)C(=O)O)c1` (configuration not stated) as the molecule, how does the Change [1] read?
The Change was -19%.

And the Change [2]?
Its Change is -28%.

And the Efficacy ratio ([3]; 316 mg/kg)?
The Efficacy ratio was 1.88 and 1.46.

With `COc1ccc(C(=O)c2ccccc2NC(C)C(=O)O)cc1` (configuration not stated) as the molecule, how does the Change [4] read?
The Change was -9%.

What about the Change [2] of the same molecule?
Its Change is -35%.

And the Change [5]?
The Change was -22%.

And the Efficacy ratio ([3]; 316 mg/kg)?
Its Efficacy ratio is 1.8 and 1.94.

How did the Efficacy ratio ([3]; 316 mg/kg) turn out when `COc1ccc(NC(C)C(=O)O)c(C(=O)c2ccccc2)c1` (configuration not stated) was run?
The Efficacy ratio was 1.06 and 1.52.

Which results are given for `CC(Nc1cccc(C(=O)c2ccccc2)c1)C(=O)O.Cl` (configuration not stated)?
Change [2]: -32%; Efficacy ratio ([3]; 316 mg/kg): 1.38 and 1.4; Change [6]: -15%

For `CN(CC(=O)O)c1ccccc1C(=O)c1ccccc1.Cl`, which Change [7] is on record?
The Change was -13%.

And the Change [2]?
Its Change is -38%.

What does the source list for `Cc1ccc(NC(C)C(=O)O)c(C(=O)c2ccccc2)c1` (configuration not stated)?
Change [5]: -15%; Efficacy ratio [3]: 1.52; Change [8]: -31%

With `CC(Oc1ccccc1C(=O)c1ccccc1)C(=O)O` (configuration not stated) as the molecule, how does the Efficacy ratio ([3]; 316 mg/kg) read?
The Efficacy ratio was 0.98 and 1.65.

Which Change [4] does the source give for `Cc1ccc(C(=O)c2ccccc2NC(C)C(=O)O)cc1` (configuration not stated) here?
The Change was -8%.

What about the Change [2] of the same molecule?
The Change was -35%.

What about the Change [5] of the same molecule?
The Change was -21%.

What about the Efficacy ratio ([3]; 316 mg/kg) of the same molecule?
The Efficacy ratio was 1.39 and 1.52.

How did the Change [4] turn out when `CC(Nc1ccccc1C(=O)c1ccc(Br)cc1)C(=O)O` (configuration not stated) was run?
The Change was -3%.

And the Change [2]?
The Change was -25%.

And the Change [5]?
The Change was -29%.

What about the Efficacy ratio ([3]; 316 mg/kg) of the same molecule?
Its Efficacy ratio is 1.43 and 1.46.

With `O=C(O)CNc1ccccc1C(=O)c1ccccc1` as the molecule, how does the Efficacy ratio ([3]; 316 mg/kg) read?
The Efficacy ratio was 0.98 and 1.47.

`Cc1ccc2c(-c3ccccc3)nc(=O)n(C(C)C)c2c1` [PROQUAZONE] was tested. Which IC50 [9] did it give?
The IC50 was 0.07 µM.

Which Efficacy ratio ([3]; 316 mg/kg) does the source give for `CC(CNc1ccccc1C(=O)c1ccccc1)C(=O)O.Cl` (configuration not stated) here?
Its Efficacy ratio is 0.97 and 1.4.

Which Change [1] does the source give for `CC(Nc1ccccc1C(=O)c1ccc(Cl)cc1)C(=O)O` (configuration not stated) here?
Its Change is -5%.

And the Change [2]?
The Change was -30%.

What about the Change [10] of the same molecule?
The Change was -33%.

And the Efficacy ratio ([3]; 316 mg/kg)?
Its Efficacy ratio is 1.62 and 1.42.

What about the IC50 [9] of the same molecule?
The IC50 was 60 µM.

Which results are given for `CC(Nc1ccccc1C(=O)c1ccc(Cl)cc1Cl)C(=O)O` (configuration not stated)?
Change [4]: -3%; Change [2]: -32%; Change [5]: -34%; Efficacy ratio ([3]; 316 mg/kg): 1.44 and 1.52

Which Change [2] does the source give for `CC(Nc1ccc(C(=O)c2ccccc2)cc1)C(=O)O` (configuration not stated) here?
Its Change is -31%.

What about the Efficacy ratio ([3]; 316 mg/kg) of the same molecule?
The Efficacy ratio was 1.37 and 1.91.

And the Change [6]?
The Change was -4%.

For `CC(Nc1ccccc1C(=O)c1ccccc1)C(=O)O` (configuration not stated), which Change [11] is on record?
The Change was -28%.

What about the Change [12] of the same molecule?
Its Change is 4%.

And the Change [13]?
The Change was -32%.

What about the Efficacy ratio ([3]; 316 mg/kg) of the same molecule?
Its Efficacy ratio is 1.6 and 1.66.

And the Change ([8]; 4 mg/kg)?
Its Change is -20% and -30%.

With `O=C(O)CCNc1ccccc1C(=O)c1ccccc1` as the molecule, how does the Change [2] read?
Its Change is -41%.

What about the Efficacy ratio ([3]; 316 mg/kg) of the same molecule?
Its Efficacy ratio is 1.35 and 1.46.

And the Change [6]?
Its Change is -9%.

How did the Efficacy ratio ([3]; 316 mg/kg) turn out when `CC(C)Nc1ccccc1C(=O)c1ccccc1.Cl` was run?
The Efficacy ratio was 1.13 and 1.46.

With `CC(Nc1ccc(Cl)cc1C(=O)c1ccc(Br)cc1)C(=O)O` (configuration not stated) as the molecule, how does the Efficacy ratio ([3]; 316 mg/kg) read?
The Efficacy ratio was 1.1 and 1.57.

`Cc1ccc2c(-c3ccccc3)nc(=O)n(C(C)C(=O)O)c2c1` (configuration not stated) was tested. Which Relative potency [14] did it give?
The Relative potency was “inactive”.

What about the IC50 [9] of the same molecule?
Its IC50 is 300 µM.

For `CC(Nc1ccc(Cl)cc1C(=O)c1ccccc1)C(=O)O` (configuration not stated), which Change [4] is on record?
Its Change is 6%.

What about the Change ([5]; 100 mg/kg) of the same molecule?
Its Change is -28% and -18%.

And the Efficacy ratio ([3]; 316 mg/kg)?
The Efficacy ratio was 1.96 and 1.57.

For `CC(Nc1ccccc1Oc1ccccc1)C(=O)O` (configuration not stated), which Efficacy ratio ([3]; 316 mg/kg) is on record?
Its Efficacy ratio is 1.18 and 1.52.

Which IC50 [9] does the source give for `Cc1c(NCC(=O)O)cccc1C(=O)c1ccc(Cl)cc1` here?
Its IC50 is over 1000 µM.

Reference: ChEMBL document CHEMBL1122614, “Antiinflammatory activity of N-(2-benzoylphenyl)alanine derivatives” (J Med Chem, 1984)
